Among the test systems are IGROV-1; NCI-H226; SF-539; KM12; ACHN; COLO 205; SW-620; MOLT-4; T47D; RPMI-8226; HT-29; HCT-116; BT-549; Malme-3M; A549; SNB-75; OVCAR-8; HOP-92; MDA-N.
Assay in all cases: NCI-60 cell line screen, 48 h

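Grown in 96-well plates, cells were treated for 48 hours with each compound at five concentrations. Insufficient inhibition: endpoint recorded as highest concentration tested. Here, GI50 denotes the concentration required for 50% inhibition of growth.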 The source made the active and inactive calls. Rule as the data show it: active = GI50 up to about 1.1 µM and inactive = higher. Where only a bound is given, the exact number is not on record here.

Regarding `COC(=O)c1c[nH]c2c1-c1cc(C(=O)OCc3ccccc3)n(S(=O)(=O)c3ccc(C)cc3)c1C(=O)C2=O`, the GI50 with IGROV-1 was 0.372 µM (active); in the assay with NCI-H226, 0.729 µM (active); in the assay on SF-539, 0.197 µM (active); with KM12 it was 0.25 µM (active); in the assay on ACHN, 0.28 µM (active); with COLO 205, 0.805 µM (active). The GI50 with SW-620 is 0.214 µM (active); in the assay on MOLT-4 it was 0.356 µM (active); in the assay on T47D, 0.871 µM (active); in the assay with RPMI-8226, 0.362 µM (active); in the assay with HT-29, 0.473 µM (active); in the assay on HCT-116, 0.228 µM (active). Also, the GI50 in the assay with BT-549 is 0.19 µM (active); in the assay on Malme-3M, 0.103 µM (active); in the assay with A549 it was 0.716 µM (active); in the assay with SNB-75, 0.189 µM (active); in the assay on OVCAR-8 it was 0.237 µM (active); in the assay on HOP-92, 0.27 µM (active).

Turning to `C#CCCCC(=C)C[C@@H]1OC(=O)[C@H](C)[C@@H]1O`, the GI50 with KM12, in the assay with ACHN, with COLO 205, with SW-620, with MOLT-4 and with T47D was > 100 µM (inactive) in each case. For the same compound, the GI50 in the assay with RPMI-8226, in the assay with MDA-N, in the assay on HCT-116, in the assay with A549, in the assay with SNB-75 and in the assay on HOP-92 was > 100 µM (inactive) throughout.

In the case of `C#CCOCn1cc(C)c(=O)[nH]c1=O`, the GI50 in the assay on IGROV-1, with NCI-H226, with SF-539, in the assay on KM12, with ACHN and with COLO 205 was > 100 µM (inactive) each time. Moreover, the GI50 in the assay on SW-620, in the assay on MOLT-4, in the assay on T47D, in the assay on RPMI-8226, in the assay with MDA-N and with HT-29 was > 100 µM (inactive) each time. Further, the GI50 in the assay with HCT-116, in the assay on Malme-3M, in the assay on A549, in the assay with SNB-75 and with OVCAR-8 was > 100 µM (inactive) in each case.

As for `O=C(CSCC(=O)N/N=C/c1cccs1)N/N=C/c1cccs1`, the GI50 was 66.7 µM (inactive) in the assay on IGROV-1; 37.2 µM (inactive) in the assay on NCI-H226; 52.8 µM (inactive) with SF-539; > 100 µM (inactive) with KM12; 64.4 µM (inactive) in the assay on ACHN; > 100 µM (inactive) in the assay with SW-620. Further, the GI50 was 64.7 µM (inactive) in the assay on MOLT-4; > 100 µM (inactive) with T47D; 42.4 µM (inactive) in the assay with RPMI-8226; > 100 µM (inactive) with HT-29; > 100 µM (inactive) with HCT-116; 43.2 µM (inactive) in the assay on BT-549. Besides, the GI50 is 61 µM (inactive) with Malme-3M; > 100 µM (inactive) in the assay on A549; > 100 µM (inactive) in the assay with SNB-75; 37 µM (inactive) in the assay with OVCAR-8; 27.2 µM (inactive) in the assay on HOP-92.

With `O=Cc1ccc(-c2ccc(-c3ccc(CO)s3)o2)s1`, the GI50 was 0.547 µM (active) in the assay on IGROV-1; 0.0681 µM (active) in the assay on NCI-H226; 17.9 µM (inactive) with SF-539; 42.6 µM (inactive) in the assay with KM12; 28.7 µM (inactive) with ACHN; 12.9 µM (inactive) with COLO 205. The GI50 is 2.22 µM (inactive) in the assay with SW-620; 2.92 µM (inactive) with MOLT-4; 2.21 µM (inactive) in the assay on T47D; 1.54 µM (inactive) in the assay with RPMI-8226; 7.83 µM (inactive) with HT-29; 0.841 µM (active) in the assay with HCT-116. Also, the GI50 was 6.24 µM (inactive) in the assay with BT-549; 18.2 µM (inactive) in the assay on Malme-3M; 14.8 µM (inactive) with A549; 20.2 µM (inactive) with SNB-75; 7.28 µM (inactive) in the assay on OVCAR-8; 17.5 µM (inactive) in the assay on HOP-92.

As to `CC(=O)Nc1ccc(S(=O)(=O)NN(C)S(=O)(=O)c2ccc(C)cc2)cc1`, the GI50 in the assay with IGROV-1, in the assay with SF-539, with KM12, in the assay with ACHN, in the assay with COLO 205 and with SW-620 was > 100 µM (inactive) throughout. Moreover, the GI50 in the assay on MOLT-4, with RPMI-8226, in the assay on HT-29, in the assay with HCT-116, in the assay with Malme-3M and in the assay on A549 was > 100 µM (inactive) each time. Besides, the GI50 in the assay on OVCAR-8 and in the assay on HOP-92 was > 100 µM (inactive) in each case.

`Oc1ccc(-c2csc(N/N=C3\NC/C(=C/c4ccc5c(c4)OCO5)S3)n2)cc1O`: the GI50 is 20.6 µM (inactive) in the assay on IGROV-1; 43.5 µM (inactive) in the assay on NCI-H226; 3.18 µM (inactive) in the assay with SF-539; 17.3 µM (inactive) in the assay with KM12; 17 µM (inactive) in the assay with ACHN; 29.1 µM (inactive) in the assay on COLO 205. Further, the GI50 in the assay on SW-620 was 35.4 µM (inactive); with MOLT-4, 5.45 µM (inactive); in the assay with T47D, 31.5 µM (inactive); with MDA-N it was 3.4 µM (inactive); in the assay with HT-29, 38.5 µM (inactive); in the assay with HCT-116, 29.3 µM (inactive). Moreover, the GI50 in the assay with A549 is 45.5 µM (inactive); in the assay with SNB-75 it was 1.73 µM (inactive); in the assay on OVCAR-8 it was 29.2 µM (inactive); in the assay with HOP-92, 38.5 µM (inactive).

As for `CN(C)NC1=NS(=O)(=O)c2cc3c(cc2S1)N(N(C)C)C(=O)c1cc2c(cc1N(N(C)C)C3=O)SC(NN(C)C)=NS2(=O)=O`, the GI50 with IGROV-1, with NCI-H226, with SF-539, with KM12, with ACHN and with COLO 205 was > 10 µM (inactive) each time. Besides, the GI50 in the assay with SW-620, with MOLT-4, in the assay on T47D, with RPMI-8226, in the assay with HT-29 and in the assay with HCT-116 was > 10 µM (inactive) in each case. Also, the GI50 in the assay on BT-549, in the assay on Malme-3M, with A549, in the assay on SNB-75, with OVCAR-8 and in the assay with HOP-92 was > 10 µM (inactive) throughout.

Consider `COc1ccc(NC(=O)NNS(=O)(=O)c2ccc(C)cc2)cc1`, for which the GI50 was > 100 µM (inactive) in the assay on IGROV-1; > 100 µM (inactive) in the assay with NCI-H226; > 100 µM (inactive) in the assay on SF-539; 91.6 µM (inactive) in the assay on KM12; 91.6 µM (inactive) in the assay on ACHN; > 100 µM (inactive) in the assay with COLO 205. Besides, the GI50 was > 100 µM (inactive) in the assay with SW-620; > 100 µM (inactive) in the assay on MOLT-4; > 100 µM (inactive) with T47D; > 100 µM (inactive) in the assay with RPMI-8226; 32.7 µM (inactive) in the assay on MDA-N; > 100 µM (inactive) in the assay on HT-29. For the same compound, the GI50 with HCT-116 was > 100 µM (inactive); in the assay with Malme-3M, > 100 µM (inactive); with A549, > 100 µM (inactive); in the assay with SNB-75 it was 29.4 µM (inactive); in the assay on OVCAR-8 it was > 100 µM (inactive); in the assay with HOP-92, > 100 µM (inactive).

On to `CCCCCCCCCC[C@@H](O)[C@H]1CC[C@@H]([C@H]2CC[C@H]([C@H](O)CCCCCCCCCC[C@@H]3CC(CC(C)=O)C(=O)O3)O2)O1` (stereo partly drawn), for which the GI50 is 8.28 µM (inactive) in the assay with IGROV-1; 1 µM (active) with NCI-H226; 7.05 µM (inactive) with SF-539; 2.52 µM (inactive) with KM12; 1.17 µM (inactive) in the assay on ACHN; 1.52 µM (inactive) in the assay with COLO 205. Also, the GI50 with SW-620 is 4.4 µM (inactive); in the assay on MOLT-4, 4.13 µM (inactive); with T47D, 1.7 µM (inactive); with RPMI-8226, 2.39 µM (inactive); in the assay on HT-29 it was 3.42 µM (inactive); in the assay on HCT-116, 2.68 µM (inactive). Besides, the GI50 in the assay on BT-549 is 2.48 µM (inactive); in the assay on Malme-3M, 15.1 µM (inactive); in the assay with A549, 2.16 µM (inactive); in the assay on SNB-75, 1.42 µM (inactive); with OVCAR-8, 2.34 µM (inactive); with HOP-92 it was 17 µM (inactive).

`Sc1nn2c(Cc3ccccc3)nnc2s1`: the GI50 in the assay on IGROV-1 is > 100 µM (inactive); with NCI-H226 it was 89.9 µM (inactive); with SF-539 it was > 100 µM (inactive); with KM12, > 100 µM (inactive); in the assay with ACHN, > 100 µM (inactive); with COLO 205 it was > 100 µM (inactive). Also, the GI50 in the assay with SW-620, in the assay with MOLT-4, with T47D, in the assay with RPMI-8226, with HT-29 and in the assay with HCT-116 was > 100 µM (inactive) each time. In addition, the GI50 with Malme-3M, with A549, in the assay with OVCAR-8 and in the assay with HOP-92 was > 100 µM (inactive) in each case.

With `O=c1c(O)c(-c2ccc(O)cc2O)oc2cc(O)cc(O)c12` [MORIN], the GI50 in the assay on IGROV-1, in the assay with NCI-H226, with SF-539, with KM12, in the assay with ACHN and in the assay on COLO 205 was > 100 µM (inactive) each time. Further, the GI50 in the assay with SW-620 is > 100 µM (inactive); in the assay on T47D, > 100 µM (inactive); in the assay on MDA-N, > 100 µM (inactive); in the assay with HT-29, > 100 µM (inactive); in the assay on HCT-116, 86.1 µM (inactive); with Malme-3M, > 100 µM (inactive). Further, the GI50 in the assay on A549, in the assay on SNB-75, in the assay on OVCAR-8 and in the assay with HOP-92 was > 100 µM (inactive) in each case.

Values taken from ChEMBL document CHEMBL1201862, “PubChem BioAssay data set” (2004).
